Blank lines part the entries; values can stand above or below the molecule they belong to.
What was measured:
[1] = target: T1, Telomerase reverse transcriptase (Homo sapiens, UniProt O14746); assay: Inhibition of telomerase derived from human K562 cell extract incubated for 30 mins by TRAP assay; type: cell-free
[2] = target: T1, Telomerase reverse transcriptase; assay: Inhibition of telomerase derived from human A2780 cell extract by TRAP assay; type: cell-free
[3] = Selectivity index, ratio of IC50 for rat L6 cells to IC50 for Plasmodium falciparum NF54; type: toxicity; details: read-out: Ratio IC50
HCT-116 [4] = assay: Antiproliferative activity against human HCT-116 cells assessed as cell growth inhibition; type: functional, cell-based
Hemozoin [5] = assay: Inhibition of beta-hematin formation
[6] = Selectivity index, ratio of CC50 for human Huh-7 cells to IC50 for Plasmodium falciparum 3D7; type: toxicity; details: read-out: Ratio CC50/IC50
Plasmodium falciparum [7] = assay: Antimalarial activity against Plasmodium falciparum INDO assessed as parasite growth inhibition incubated for 48 hrs by SYBR green dye based fluorescence assay; type: functional, organism-based
Hemozoin [8] = assay: Inhibition of detergent-mediated beta-hematin formation incubated for 6 hrs by multiwell plate reader analysis
Plasmodium falciparum [9] = assay: Antimalarial activity against Plasmodium falciparum 3D7 assessed as parasite growth inhibition incubated for 48 hrs by SYBR green dye based fluorescence assay; type: functional, organism-based; details: 3D7, 48 h
Plasmodium falciparum [10] = assay: Antimalarial activity against Plasmodium falciparum Dd2 assessed as parasite growth inhibition incubated for 48 hrs by SYBR green dye based fluorescence assay; type: functional, organism-based; details: Dd2, 48 h
Plasmodium berghei [11] = assay: Antimalarial activity against Plasmodium berghei ANKA infected in BALB/c mouse assessed as parasite growth inhibition at 50 mg/kg, po administered for 4 consecutive days measured for 7 to 13 days by geimsa dye based microscopy relative to control; type: functional; design: scale not given: the % may be the effect or the level left; details: time 7-13 day
[12] = Cytotoxicity against rat L6 cells assessed as cell growth inhibition; type: toxicity, cell-based
Plasmodium falciparum [13] = assay: Antimalarial activity against Plasmodium falciparum NF54 assessed as parasite growth inhibition; type: functional, organism-based
Plasmodium falciparum [14] = assay: Antimalarial activity against Plasmodium falciparum K1 assessed as parasite growth inhibition; type: functional, organism-based
Plasmodium falciparum [15] = assay: Antimalarial activity against chloroquine/mefloquine resistant Plasmodium falciparum clinical isolates assessed as parasite growth inhibition incubated for 24 hrs by microtechnique method; type: functional, organism-based
A549 = assay: Antiproliferative activity against human A549 cells assessed as cell growth inhibition; type: functional, cell-based
HeLa = assay: Antiproliferative activity against human HeLa cells assessed as cell growth inhibition; type: functional, cell-based
DU-145 = assay: Antiproliferative activity against human DU-145 cells assessed as cell growth inhibition; type: functional
MCF7 = assay: Antiproliferative activity against human MCF7 cells assessed as cell growth inhibition; type: functional, cell-based
SK-HEP1 = assay: Antiproliferative activity against human SK-HEP1 cells assessed as cell growth inhibition; type: functional, cell-based
[16] = Cytotoxicity against rat L6 cells assessed as cell growth inhibition incubated for 70 hrs by alamar blue staining based microscopy; type: toxicity
[17] = Selectivity index, ratio of IC50 for rat L6 cells to IC50 for erythrocytic Plasmodium falciparum K1; type: toxicity; details: read-out: Ratio IC50
Plasmodium falciparum [18] = assay: Antimalarial activity against erythrocytic Plasmodium falciparum NF54 assessed as parasite growth inhibition incubated for 48 hrs by [3H]-hypoxanthine incorporation assay; type: functional, organism-based
Plasmodium falciparum [19] = assay: Antimalarial activity against erythrocytic chloroquine/pyrimethamine resistant Plasmodium falciparum K1 assessed as parasite growth inhibition incubated for 48 hrs by [3H]-hypoxanthine incorporation assay; type: functional, organism-based
[20] = Resistance index, ratio of IC50 for erythrocytic Plasmodium falciparum K1 to IC50 for erythrocytic Plasmodium falciparum NF54
Hemozoin [21] = assay: Inhibition of detergent-mediated beta-hematin formation incubated for 5 to 6 hrs by absorbance based assay
Plasmodium berghei [22] = assay: Antimalarial activity against erythrocytic Plasmodium berghei ANKA infected in NMRI mouse assessed as reduction in parasitemia at 40 mg/kg, ip administered for 4 consecutive days measured after 24 hrs post last dose by FACS analysis relative to control; type: functional; design: scale not given: the % may be the effect or the level left
[23] = Selectivity index, ratio of IC50 for rat L6 cells to IC50 for erythrocytic Plasmodium falciparum NF54; type: toxicity; details: read-out: Ratio IC50
[24] = Selectivity index, ratio of IC50 for rat L6 cells to IC50 for Plasmodium falciparum K1; type: toxicity; details: read-out: Ratio IC50
HCT-116 [25] = assay: Antiproliferative activity against human HCT-116 cells assessed as cell growth inhibition incubated for 96 hrs by MTS assay; type: functional, cell-based; details: HCT-116, 96 h

T1 sequence (O14746 whole entry): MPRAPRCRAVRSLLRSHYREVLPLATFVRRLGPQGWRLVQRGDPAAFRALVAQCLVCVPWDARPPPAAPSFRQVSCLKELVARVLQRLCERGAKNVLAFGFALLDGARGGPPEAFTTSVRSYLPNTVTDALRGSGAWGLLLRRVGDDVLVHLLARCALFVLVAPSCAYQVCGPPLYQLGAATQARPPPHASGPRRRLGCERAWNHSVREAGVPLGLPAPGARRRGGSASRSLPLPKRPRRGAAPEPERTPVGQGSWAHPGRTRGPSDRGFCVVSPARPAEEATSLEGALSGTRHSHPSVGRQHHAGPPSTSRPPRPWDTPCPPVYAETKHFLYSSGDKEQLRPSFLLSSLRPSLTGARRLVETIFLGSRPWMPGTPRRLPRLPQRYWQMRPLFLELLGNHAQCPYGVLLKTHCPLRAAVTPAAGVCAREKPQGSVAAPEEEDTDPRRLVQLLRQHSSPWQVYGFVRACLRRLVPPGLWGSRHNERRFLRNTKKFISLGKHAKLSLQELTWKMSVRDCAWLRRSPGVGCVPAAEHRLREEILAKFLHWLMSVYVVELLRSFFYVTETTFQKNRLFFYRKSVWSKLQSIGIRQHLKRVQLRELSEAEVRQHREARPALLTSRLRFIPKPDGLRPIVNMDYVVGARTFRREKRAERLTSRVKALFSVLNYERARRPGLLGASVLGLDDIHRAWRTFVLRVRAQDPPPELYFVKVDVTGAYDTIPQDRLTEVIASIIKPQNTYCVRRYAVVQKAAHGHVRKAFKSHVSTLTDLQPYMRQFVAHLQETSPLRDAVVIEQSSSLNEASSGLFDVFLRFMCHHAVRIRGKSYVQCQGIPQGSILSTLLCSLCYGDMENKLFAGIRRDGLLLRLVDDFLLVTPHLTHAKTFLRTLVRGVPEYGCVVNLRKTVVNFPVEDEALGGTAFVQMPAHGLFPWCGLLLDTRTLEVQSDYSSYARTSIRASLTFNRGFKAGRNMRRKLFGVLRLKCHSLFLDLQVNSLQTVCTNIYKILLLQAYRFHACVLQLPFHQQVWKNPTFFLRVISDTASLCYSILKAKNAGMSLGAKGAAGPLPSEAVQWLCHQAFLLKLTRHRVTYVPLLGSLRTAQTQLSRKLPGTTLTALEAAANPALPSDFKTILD

IC50 [2]: 6.3 µM
SMILES: c1cc2nc3c(cc2cc1CCCN1CCCC1)[nH]c1ccc(CCCN2CCCC2)cc13

IC50 [1]: 1.55 µM
SMILES: OCCCNc1c2ccccc2nc2c1[nH]c1ccccc12

IC50 (HCT-116 [4]): 0.3 µM
SMILES: CNCCCNc1c2ccccc2nc2c1[nH]c1ccccc12

IC50 (Hemozoin [8]): 840 µM
SMILES: O=C(NCCN1CCCCC1)c1c2cc(Br)ccc2nc2c1[nH]c1ccccc12
selectivity ratio [6]: 46.9
IC50 (Plasmodium falciparum [7]): 5 µM
IC50 (Plasmodium falciparum [9]): 1.3 µM
IC50 (Plasmodium falciparum [10]): 6.3 µM
Activity (Plasmodium berghei [11]): 27%

IC50 (Hemozoin [5]): 16.8 µM
SMILES: NCCCNc1c2ccccc2nc2c1[nH]c1ccccc12
selectivity ratio [3]: 16

GI50 (A549): 7.2 µM
GI50 (HeLa): 10.3 µM
GI50 (DU-145): 20.7 µM
GI50 (MCF7): 9.7 µM
SMILES: Cn1c2ccccc2c2c(C(=O)NC3CCCCC3)c3cc(Cl)ccc3nc21

IC50 [2]: 11.8 µM
SMILES: c1cc2nc3c(cc2cc1CCCN1CCCCC1)[nH]c1ccc(CCCN2CCCCC2)cc13

Continued, molecule first:

SMILES: CN(C)CCNc1c2ccccc2nc2c1[nH]c1ccccc12
IC50 [1]: 1.12 µM

SMILES: Cn1c2nc3ccccc3c-2c(NCCCN)c2ccccc21
selectivity ratio [3]: 3.5

SMILES: CN(CCCNc1c2ccccc2nc2c1[nH]c1ccccc12)C(=O)c1cccc(B(O)O)c1
IC50 (HCT-116 [4]): 15.7 µM

SMILES: COC(=O)c1ccc2c(c1)c(NCCCN)c1c3ccccc3nc-1n2C
IC50 (Hemozoin [5]): 104 µM

SMILES: Cn1c2nc3ccccc3c-2c(NCC(C)(C)CNC(=O)Nc2ccccc2)c2cc(Cl)ccc21
IC50 [12]: 1.18 µM
IC50 (Plasmodium falciparum [13]): 0.019 µM
IC50 (Hemozoin [5]): 10.1 µM

SMILES: CCN(CC)Cc1cc2[nH]c3c4ccc(Cl)cc4ncc3c2cc1OC
IC50 (Plasmodium falciparum [14]): 0.009 µM

SMILES: Cn1c2nc3ccccc3c-2c(NCC(C)(C)CNC(=O)Nc2ccccc2)c2ccccc21
IC50 [12]: 5.65 µM
IC50 (Plasmodium falciparum [13]): 0.068 µM
selectivity ratio [3]: 82.2
IC50 (Hemozoin [5]): 26.3 µM

SMILES: COc1cc2c(cc1CN1CCN(C)CC1)[nH]c1c3ccc(Cl)cc3ncc21
IC50 (Plasmodium falciparum [14]): 0.0024 µM

SMILES: COc1ccc2[nH]c3c4ccc(Cl)cc4ncc3c2c1
IC50 (Plasmodium falciparum [15]): 0.002 µM

SMILES: Cn1c2nc3ccccc3c-2c(NCC(C)(C)CNC(=S)Nc2ccccc2)c2ccccc21
IC50 [12]: 7.25 µM
IC50 (Plasmodium falciparum [13]): 0.057 µM
selectivity ratio [3]: 126
IC50 (Hemozoin [5]): 19.9 µM

SMILES: c1ccc2c(c1)nc(NCCCNCCCNc1nc3ccccc3c3[nH]c4ccccc4c13)c1c3ccccc3[nH]c21
IC50 (SK-HEP1): 0.09 µM

SMILES: C[C@H]1[C@H](OC(=O)CCC(=O)NCCCNc2c3ccccc3[n+](C)c3[nH]c4ccccc4c23)O[C@@H]2O[C@@]3(C)CC[C@H]4[C@H](C)CC[C@@H]1[C@@]24OO3
IC50 at 70 h [16]: 1.53 µM
selectivity ratio [17]: 3640
IC50 (Plasmodium falciparum [18]): 0.00045 µM
IC50 (Plasmodium falciparum [19]): 0.00042 µM
Ratio IC50 [20]: 0.93
IC50 (Hemozoin [21]): 222 µM
Activity (Plasmodium berghei [22]): 89.6%
selectivity ratio [23]: 3400

SMILES: OCCNc1c2ccccc2nc2c1[nH]c1ccccc12
IC50 [1]: 2.35 µM

SMILES: COC(=O)c1ccc2nc3n(C)c4ccccc4c(NCCCN)c-3c2c1
selectivity ratio [24]: 7.2
IC50 (Hemozoin [5]): 48.9 µM

SMILES: C[C@H]1[C@H](OC(=O)CCC(=O)NCCCNc2nc3ccccc3c3[nH]c4ccccc4c23)O[C@@H]2O[C@@]3(C)CC[C@H]4[C@H](C)CC[C@@H]1[C@@]24OO3
selectivity ratio [17]: 3280
IC50 (Hemozoin [21]): 15.7 µM

SMILES: CCN(CC)CCOC(=O)c1ccc2c(c1)c1c(c(=O)c3ccccc3n1CCN(CC)CC)n2CCN(CC)CC
IC50 (HCT-116 [25]): 4.5 µM

From ChEMBL document CHEMBL5113378, “Role of basic aminoalkyl chains in the lead optimization of Indoloquinoline alkaloids” (Eur J Med Chem, 2022)
